According to patent publication US20240245639A1, “Dermal Application of Retinoic Acid Receptor Agonists for Amelioration of Hypertrophic Scar” (Northwestern University, priority 2023, published 2024):

Columns and labels:
[1] = system: primary human keloid fibroblasts; assay: Collagen I deposition in keloid fibroblasts (Western blot, immunofluorescence); type: cell-based; details: keloid fibroblasts, 1,000 nM Ch55, presence and absence of TGF-β1, 48 hours
Description: Since overproduction of collagen is characteristic of fibroblasts in tissue fibrosis, including hypertrophic scar and keloid, we wished to determine whether Ch55 also affects deposition of collagen I by these fibroblasts.
Cells cultured on glass coverslips were fixed in 4% paraformaldehyde for 30 minutes at room temperature. Cells were blocked in 10% normal goat serum and incubated overnight at 4° C. in solutions of the following primary antibodies: Rabbit monoclonal α-human α-SMA (1:500 dilution, catalog #192455, Cell Signaling Technology, Danvers M A) or mouse α-human COL1A1 (1:1000 dilution, catalog #M-38c, DSHB, Iowa City, IA). The following day, cells were incubated in 1:200 diluted solutions of goat-α-rabbit IgG or donkey-α-mouse IgG Alexafluor 488-conjugated secondary antibodies (A11034 or A21202, Invitrogen) containing Alexafluor 568-conjugated phalloidin (A12380, Invitrogen) for 2 hours in the dark at room temperature, before a 20 minute counterstain in 500 ng/mL DAPI. […]
Harvested scar tissues were incubated in 0.5M ammonium thiocyanate for 20 minutes, followed by mechanical separation of dermis and epidermis using a dissecting microscope. […] Protein concentrations of cell culture and tissue samples were determined using a DC protein assay (BioRad). […]

[2] = system: excisional wound-induced hypertrophic scarring in the ears of New Zealand White rabbits; assay: Rabbit ear hypertrophic scar model; type: in vivo; details: POD28; for amount of type I collagen in the dermis (Western blot, densitometry) / erythema in developed scars: intradermal; for erythema in developed scars: three injections
Description: Harvested scars were processed and analyzed to determine scar elevation index (SEI), a common quantitative histological measurement used to assess scar hypertrophy (FIG. 17). […] MATERIALS AND METHODS Materials […] dihydrochloride hydrate, homoharringtonine, Ch55 and panobinostat were acquired from Fisher Scientific (Waltham, MA). AZD-7762 was acquired from Selleck Chemicals (Houston, TX). For in vitro work, emetine dihydrochloride hydrate was dissolved in sterile H2O at 50 mM. Homoharringtonine was dissolved in DMSO at 10 mg/mL. Panobinostat was dissolved in DMSO at 425 μM. […] Recombinant human TGF-β1 (Sigma-Aldrich) was dissolved in sterile H2O at 50 µg/mL. All-trans-retinoic acid (Thermo Scientific) was dissolved in DMSO at 10 mM. […] All animal experiments were approved prior to initiation by the Northwestern University Institutional Animal Care and Use Committee (IACUC). Rabbit experiments were performed in female New Zealand White rabbits (Envigo, Indianapolis, IN) of mass 2.5-3 kg. The hypertrophic scar model was performed as described in previous publications (Dolivo et al., Jia et al., 2017, Xie et al., 2020). Briefly, on each ear, six full-thickness circular excisional wounds of 7-mm diameter were created down to the perichondrium using biopsy punches, and excised tissue was removed gently using forceps. Wounds were covered with Tegaderm (3M Healthcare, St. Paul, MN) and wounds were allowed to re-epithelialize until post-operative day (POD) 12. […] Injections were performed on POD16, POD19, and POD22. On POD28, measurements of erythema were performed using a DermaLab Combo (CyberDerm, Broomall, PA) immediately prior to euthanasia and tissue harvest. Harvested scar tissues were incubated in 0.5M ammonium thiocyanate for 20 minutes, followed by mechanical separation of dermis and epidermis using a dissecting microscope. Isolated dermal tissues were minced with a razor blade, submerged in RIPA buffer, and homogenized in the presence of 2 mm zirconia beads using a MagNA Lyser (Roche, Basel, Switzerland). Alternatively, cell culture samples were detached from the culture surface by trypsinization, collected by centrifugation, and lysed in RIPA buffer. Protein concentrations of cell culture and tissue samples were determined using a DC protein assay (BioRad). Five micrograms of total protein were loaded onto polyacrylamide gels and subjected to SDS-PAGE before transfer to nitrocellulose membranes, blocking with 5% dry milk in TBS-T, and probing with target-specific primary antibodies overnight. Species-specific secondary antibody solutions were added to membranes, and chemiluminescent signal was developed with Amersham ECL Western blotting detection reagent using X-ray film. Harvested tissues were fixed in 10% neutral-buffered formalin for 24 hours before serial dehydration and embedding in paraffin. […] Slides were deparaffinized and rehydrated in xylene and serial ethanol. Tissue samples were stained with hematoxylin and eosin (H&E), Modified Masson's Trichrome stain (Scytek, Logan, UT), or picrosirius red/fast green according to standard protocols.

[3] = system: primary human foreskin fibroblasts; assay: Antagonism of fibroblast activation in presence or absence of TGF-β1 (qRT-PCR, Western blot, immunofluorescence); type: cell-based
[4] = 1,000 nM Ch55, ± 10 ng/mL TGF-β1, 24 hour
[5] = 1,000 nM Ch55, ± TGF-β1, 48 hours

CC(C)(C)c1cc(C(=O)/C=C/c2ccc(C(=O)O)cc2)cc(C(C)(C)C)c1 [Ch55]
collagen I deposition (Western blot, immunofluorescence) [1]: dramatic reduction
collagen density of the scars (Masson's Trichrome, picrosirius red/fast green) ([2]; Ch55-treated wounds): possible decrease
amount of type I collagen in the dermis (Western blot, densitometry) ([2]; high dose (10 μg)): sufficient to reduce
erythema in developed scars ([2]; high dose (10 μg)): significantly decreased
amount of type I collagen in the dermis (Western blot, densitometry) ([2]; low dose (2 μg)): sufficient to reduce
erythema in developed scars ([2]; low dose (2 μg)): not statistically significant
spread area per cell (brightfield microscopy) ([3]; 1,000 nM Ch55, 48 hours): decreased
deposition of collagen I (immunofluorescence) ([3]; 1,000 nM Ch55, presence and absence of TGF-β1, 48 hours): greatly diminished deposition
basal and TGF-β1-induced expression of ACTA2 (qRT-PCR) [3, 4]: significantly downregulated
basal and TGF-β1-induced expression of CCN2 (qRT-PCR) [3, 4]: significantly downregulated
basal and TGF-β1-induced expression of SERPINE1 (qRT-PCR) [3, 4]: significantly downregulated
collagen deposition as assessed by expression of type I collagen (Western blot) [3, 5]: dramatically antagonized
fibroblast activation as assessed by expression of α-SMA (Western blot) [3, 5]: dramatically antagonized
